Data reported in patent US9669028B2, “Substituted 5-(pyrazin-2-yl)-1H-pyrazolo [3, 4-B] pyridine and pyrazolo [3, 4-B] pyridine derivatives as protein kinase inhibitors” (Arrien Pharmaceuticals LLC, priority 2011, dated 2017).
Several values for one entry are separate records, joined by “and”; a condition that tells them apart may be missing. Equal values may be shown once.

Experiments:
[1] = test system: MPTP-injected C57 black mice; assay: MPTP mouse model of Parkinson's disease, oral pre-treatment; format: in vivo; details: for protection against MPTP-induced TH cell loss and dopaminergic degeneration in substantia nigra and striatum: 10 mg/kg and 30 mg/kg oral; for locomotor activities in MPTP-injected mice / striatal dopamine levels in MPTP treated mice: orally administered, pre-treatment
[2] = test system: MPTP-injected C57 black mice; assay: MPTP mouse model, intravenous pre-treatment; format: in vivo; details: 5 mg/kg i.v.
Description: 24 C57 black mice (C57/bl6, 6-8 week old, and 25-30 g) were purchased from Charles River Laboratories, Ohio. […] Prior to treatment animals were pre-trained on rotarod for at least 3 minutes every day for three successive days. Test compound (5 mg/kg) was administered intravenously to group C animals, 24 h prior to MPTP-injection and continued daily for additional 11 days. MPTP was dissolved in PBS and injected intraperitoneally (i.p.) at doses of 25 mg/kg, once daily for 5 days to group B and C animals. Group A animals were injected with saline (i.p.) to be used as controls. Urine and Faeces were collected on Day 8, behavioural studies were performed on Day 9 (4-days post-MPTP). On day 12 (7 days post-MPTP), 4 animals/group were sacrificed, different brains regions including striatum and substantia nigra were dissected. Left striatum were used for neurochemical analysis. Other 4 animals/group were perfused and used for TH immunohistological studies.

[3] = test system: MPTP-injected C57 black mice; assay: MPTP mouse model, post-treatment study; format: in vivo; details: post-administration, oral and i.v routes
Description: (§1) 32 C57 black mice (C57/bl6, 6-8 week old, 25-30 g) were purchased from Charles River Laboratories, Ohio. […] All animals were housed in Laboratory of Animal Resources vivarium at Iowa State University under standard conditions: constant temperature (22±1° C.), humidity (relative, 30%), and a 12-h light/dark cycle. Mice were allowed free access to food and water. Use of the animals and protocol procedures were approved and supervised by the Committee on Animal Care at Iowa State University (Ames, Iowa). Test compounds were dissolved in PBS for this study. Prior to treatment animals were pre-trained on rotarod for at least 3 minutes every day for three successive days. Group A animals were injected with saline (i.p.) to be used as controls. MPTP was dissolved in PBS and injected intraperitoneally (i.p.) at doses of 25 mg/kg, once daily for 5 days to group B, C and D animals. On day 4, prior to 4th MPTP injection, group C animals received test compounds (30 mg/kg, oral) daily for eight days. Similarly, on day 4, prior to 4th MPTP injection, group D animals received test compounds (5 mg/kg, i.v) daily for eight days. On day 9 (Post-test compounds administration) or day 12 (7 days post-MPTP), 4 animals/group were sacrificed, different brain regions including striatum and substantia nigra were dissected. Left striatum were used for neurochemical analysis. Other 4 animals/group were perfused and used for TH immunohistological studies.

[4] = BBB post-treatment results, concentration in mice brains; format: in vivo, mouse; details: pooled regions
Description: as §1, with “Other 4 animals/group were perfused and used for TH immunohistological studies.” left out

[5] = in vivo; details: male, Sprague Dawley, rat
Source text: To investigate the pharmacokinetic profiles of test compound following intravenous bolus administration and oral gavage in male Sprague Dawley rats.

[6] = test system: Rat hepatoma (H4IIE) cell line; assay: In vitro toxicology, general cytotoxicity; format: cell-based; details: rat, 24 h
Description: Cells were seeded into 96-well plates and cultured in medium containing 20% bovine serum. […] General cytotoxicity was evaluated by monitoring membrane integrity (MBR, cell supernatant), cell mass (PI) and mitochondrial function (cellular ATP levels). Rotenone was included as a positive control because it produces measurable effects in all three assays. DMSO at 0.5% in medium was included as a negative control. Three wells per exposure concentration were used in each assay. Results are summarized in Table 8 and are expressed as percent of control, with control values set at 100%. […] Test compounds 13 and 13 HCl were rank-ordered from most to least toxic based on individual membrane integrity and ATP responses as well as resultant TC50 values.
Test compounds 13 and 13 HCl were rank-ordered from highest to lowest probability of producing toxicity based first on membrane toxicity, then on ATP, and finally on cell mass (PI). It is important to note that within a given grouping compounds may be classified as to their primary effect being either cytotoxic, cytostatic, or reducing mitochondrial function. In general, compound responses above 80% of vehicle control are considered to be low-to-no effect, moderates generally rank 80% to 50% of vehicle control, and those compounds that cross the 50% mark are considered to have higher probability of toxicity.

[7] = physchem
[8] = target: LRRK2 (Homo sapiens (Human), UniProt Q5S007); assay: LRRK2 Kinase Assay; format: biochemical; details: 10 μM ATP
Chain of LRRK2 (Q5S007 970-2527): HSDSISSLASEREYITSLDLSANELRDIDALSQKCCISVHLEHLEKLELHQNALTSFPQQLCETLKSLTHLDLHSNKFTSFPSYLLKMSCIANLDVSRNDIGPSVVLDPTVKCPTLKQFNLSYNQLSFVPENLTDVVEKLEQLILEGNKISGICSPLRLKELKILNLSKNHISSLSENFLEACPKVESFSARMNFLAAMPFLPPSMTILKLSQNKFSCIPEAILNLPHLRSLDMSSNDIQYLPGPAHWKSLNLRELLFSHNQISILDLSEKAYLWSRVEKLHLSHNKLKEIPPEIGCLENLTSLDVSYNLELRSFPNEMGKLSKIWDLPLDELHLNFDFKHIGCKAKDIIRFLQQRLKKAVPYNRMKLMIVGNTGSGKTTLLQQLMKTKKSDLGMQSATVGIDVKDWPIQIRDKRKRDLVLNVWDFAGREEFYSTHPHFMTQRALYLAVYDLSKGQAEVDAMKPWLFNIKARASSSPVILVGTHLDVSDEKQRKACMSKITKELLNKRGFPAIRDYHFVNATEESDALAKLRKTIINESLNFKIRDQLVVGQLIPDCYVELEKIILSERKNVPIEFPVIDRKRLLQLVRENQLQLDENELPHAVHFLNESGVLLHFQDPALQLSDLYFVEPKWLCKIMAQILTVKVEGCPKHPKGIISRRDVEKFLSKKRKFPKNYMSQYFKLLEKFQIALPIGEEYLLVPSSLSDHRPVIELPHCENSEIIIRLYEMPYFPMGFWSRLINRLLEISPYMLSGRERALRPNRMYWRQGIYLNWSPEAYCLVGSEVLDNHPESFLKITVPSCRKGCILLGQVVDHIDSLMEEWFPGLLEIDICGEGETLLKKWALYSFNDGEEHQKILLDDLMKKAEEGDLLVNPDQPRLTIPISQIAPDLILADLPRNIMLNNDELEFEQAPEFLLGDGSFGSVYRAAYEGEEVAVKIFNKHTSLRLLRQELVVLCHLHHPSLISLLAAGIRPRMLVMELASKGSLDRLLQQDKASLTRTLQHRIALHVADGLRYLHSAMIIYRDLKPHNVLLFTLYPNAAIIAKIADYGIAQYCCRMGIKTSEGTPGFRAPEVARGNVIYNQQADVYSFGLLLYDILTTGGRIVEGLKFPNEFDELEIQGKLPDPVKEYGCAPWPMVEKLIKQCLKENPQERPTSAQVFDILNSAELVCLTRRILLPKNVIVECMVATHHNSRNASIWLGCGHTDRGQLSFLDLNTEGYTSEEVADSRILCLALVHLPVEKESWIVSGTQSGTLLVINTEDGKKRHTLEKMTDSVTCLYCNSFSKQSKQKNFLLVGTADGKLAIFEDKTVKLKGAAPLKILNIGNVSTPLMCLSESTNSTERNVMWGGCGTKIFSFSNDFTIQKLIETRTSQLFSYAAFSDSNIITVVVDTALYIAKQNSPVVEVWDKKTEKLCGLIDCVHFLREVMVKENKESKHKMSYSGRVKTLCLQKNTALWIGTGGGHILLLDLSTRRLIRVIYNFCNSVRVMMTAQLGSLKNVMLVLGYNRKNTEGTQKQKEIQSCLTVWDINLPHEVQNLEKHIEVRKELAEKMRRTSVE
Method in brief: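 Radiometric filter-binding assay: compound pre-incubated ~20 min with kinase and substrate peptide in 20 mM HEPES pH 7.5, 10 mM MgCl2, 1% DMSO, then 10 μM ATP with 33P-ATP added.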

[9] = target: LRRK2 G2019S (Homo sapiens (Human), UniProt Q5S007, G2019S); assay: LRRK2 G2019S Kinase Assay; format: biochemical; details: 10 μM ATP
Chain of LRRK2 G2019S (Q5S007 970-2527 G2019S): as the sequence (Q5S007 970-2527) above, with G1050S counted along it
Method in brief: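 Radiometric filter-binding assay: enzyme, substrate peptide and compound were mixed on ice, ATP added, then incubated 20 min at 30° C. Reaction was stopped with phosphoric acid and the peptide captured on filters. Incorporated radioactivity was read by scintillation counting; staurosporine served as reference.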

[10] = target: DYRK1A (Homo sapiens (Human), UniProt Q13627); assay: In vitro DYRK1A inhibition assay; format: biochemical
[11] = test system: 299 protein kinases+17 additional preview kinases; assay: Protein Kinase Selectivity Profiler; format: biochemical, human; details: LRRK2, LRRK2 G2019S, CHK1, DYRK1A, FLT3, MLK1, TNIK, TRKA; single dose 0.5 μM, 1 μM; 10 μM ATP
Description: In vitro profiling of the 317 member kinase panel was performed at Reaction Biology Corporation using the “HotSpot” assay platform. Briefly, specific kinase/substrate pairs along with required cofactors were prepared in reaction buffer; 20 mM Hepes (pH 7.5), 10 mM MgCl2, 1 mM EGTA, 0.02% Brij35, 0.02 mg/ml BSA, 0.1 mM Na3VO4, 2 mM DTT, 1% DMSO. Compounds were delivered into the reaction, followed ˜20 min later by addition of a mixture of ATP (Sigma) and 33P ATP (PerkinElmer) to a final concentration of 10 μM. Reactions were carried out at 25° C. for 120 min, followed by spotting of the reactions onto P81 ion exchange filter paper (Whatman). Unbound phosphate was removed by extensive washing of filters in 0.75% phosphoric acid. […] IC50 values and curve fits were obtained using Prism (GraphPad Software). Kinome tree representations were prepared using Kinome Mapper (http://www.reactionbiology.com/apps/kinome/mapper/Launch Kinome.htm). Specifically for the LRRK2 enzyme the substrate LRRKtide (gene bank and protein access numbers NP_940980.2 Q5S007) and clone aa 970-2527 expressed in baculovirus in insect cells with N-terminal GST tag was employed in the study protocol. In the case of DYRK1A (SEQ ID NO 16) the substrate casein (gene bank and protein access numbers NP_001387 Q13627) full length clone expressed in insect with n-terminal tag was used.
A control compound was tested in 10-dose IC50 mode with 3-fold serial dilution starting at 20 μM. Reactions were carried out at 10 μM ATP. Data pages include raw data, % Enzyme activity (relative to DMSO controls), and curve fits.

[12] = target: recombinant human MAO-A (Homo sapiens (Human), UniProt P21397); assay: Inhibition of monoamine oxidase MAO-A; format: biochemical; details: kynuramine 50 μM, 25 min at 37° C.
Chain of recombinant human MAO-A (P21397 whole entry): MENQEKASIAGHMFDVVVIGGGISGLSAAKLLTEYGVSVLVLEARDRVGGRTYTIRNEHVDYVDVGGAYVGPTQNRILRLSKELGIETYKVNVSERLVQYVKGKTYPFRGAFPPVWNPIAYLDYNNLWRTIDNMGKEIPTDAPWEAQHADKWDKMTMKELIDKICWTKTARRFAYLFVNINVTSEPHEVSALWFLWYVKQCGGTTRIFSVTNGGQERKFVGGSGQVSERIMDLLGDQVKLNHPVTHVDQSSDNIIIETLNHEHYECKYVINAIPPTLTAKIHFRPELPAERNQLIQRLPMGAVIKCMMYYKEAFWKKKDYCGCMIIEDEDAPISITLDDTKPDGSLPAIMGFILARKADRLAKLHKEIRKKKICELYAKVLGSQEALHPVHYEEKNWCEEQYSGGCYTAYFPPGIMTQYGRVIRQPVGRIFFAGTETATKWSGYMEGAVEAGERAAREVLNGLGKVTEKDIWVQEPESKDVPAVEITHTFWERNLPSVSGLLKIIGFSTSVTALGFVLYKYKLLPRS
Description: (§2) Test compounds (0.01-100 μM) final DMSO concentration 0.1%, were incubated with recombinant human MAO-A (2 μg/mL) or MAO-B (2 μg/mL) in the presence of the probe substrate kynuramine (50 μM) for 25 min at 37° C. […] The reactions were terminated by addition of methanol containing internal standard for analytical quantification. The quenched samples were incubated at 4° C. for 10 min and centrifuged at 4° C. for 10 min. The supernatant was removed and analyzed by LC-MS/MS for the probe metabolite 4-hydroxyquinoline.

[13] = target: recombinant human MAO-B (Homo sapiens (Human), UniProt P27338); assay: Inhibition of monoamine oxidase MAO-B; format: biochemical; details: kynuramine 50 μM, 25 min at 37° C.
Chain of recombinant human MAO-B (P27338 whole entry): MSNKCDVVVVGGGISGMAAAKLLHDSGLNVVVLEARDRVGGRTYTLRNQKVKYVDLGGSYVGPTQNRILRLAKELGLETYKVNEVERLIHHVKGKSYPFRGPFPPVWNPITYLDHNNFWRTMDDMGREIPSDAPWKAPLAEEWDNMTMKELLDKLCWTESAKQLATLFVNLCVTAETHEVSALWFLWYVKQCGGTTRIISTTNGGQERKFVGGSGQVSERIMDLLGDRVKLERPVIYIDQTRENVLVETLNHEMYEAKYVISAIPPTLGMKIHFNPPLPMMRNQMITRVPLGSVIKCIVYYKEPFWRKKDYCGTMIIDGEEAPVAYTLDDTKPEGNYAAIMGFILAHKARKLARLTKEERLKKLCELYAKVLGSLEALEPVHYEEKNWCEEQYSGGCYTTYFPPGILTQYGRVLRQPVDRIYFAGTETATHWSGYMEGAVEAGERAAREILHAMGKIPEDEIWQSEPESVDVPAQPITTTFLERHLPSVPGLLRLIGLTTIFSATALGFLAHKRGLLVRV
Description: as §2

| SMILES | protection against MPTP-induced TH cell loss and dopaminergic degeneration in substantia nigra and striatum [1] | locomotor activities in MPTP-injected mice [1] | striatal dopamine levels in MPTP treated mice [1] | protection against MPTP-induced histological deficits [3] | protection against MPTP-induced motor-deficits [3] | protection against MPTP-induced neurochemical deficits [3] | AUC(0-t) ([5]; iv, 5 mg/kg) [ng·h/mL] | Vd ([5]; iv, 5 mg/kg) [L/kg] | clearance ([5]; iv, 5 mg/kg) [mL/min/kg] | half-life ([5]; iv, 5 mg/kg) [h] | AUC(0-t) ([5]; po, 30 mg/kg) [ng·h/mL] | Cmax ([5]; po, 30 mg/kg) [ng/mL] | F ([5]; po, 30 mg/kg) [%] | Tmax ([5]; po, 30 mg/kg) [h] | further results |
| --- | --- | --- | --- | --- | --- | --- | --- | --- | --- | --- | --- | --- | --- | --- | --- |
| Cc1n[nH]c2ncc(-c3cncc(NC4CCN(C)CC4)n3)cc12.Cl [13 HCl, 6-(3-methyl-1H-pyrazolo[3,4-b]pyridin-5-yl)-N-(1-methylpiperidin-4-yl)pyrazin-2-amine hydrochloride] | dose-dependent protection | Improve Locomotor Activities | Restore Striatal Dopamine Levels | significantly protected | significantly protected | not against neurochemical deficits | 1020 | 15.2 | 123 | 2.26 | 1040 | 133 | 24 | 6.7 | protection against MPTP-induced TH neuronal loss in the substantia nigra and in the striatum [2]: Protect Against MPTP-Induced TH Neuronal Loss; Calc. Conc. of test compound 13 HCl in Mice Brains ([4]; individual subjects, hydrochloride): 2.92 ng/g and 1.36 ng/g and 2.32 ng/g and 3.09 ng/g and 3.79 ng/g and 2.74 ng/g and 3.03 ng/g and 2.72 ng/g; Calc. Conc. of test compound 13 HCl in Mice Brains, Mean ([4]; mean of subjects): 2.75 ng/g; ATP TC50 [6]: >50 µM; Cell Mass TC50 [6]: >50 µM; Mem Tox TC50 [6]: >50 µM; ATP % Control ([6]; 5 μM): 93%; Cell Mass % Control ([6]; 5 μM): 89%; Mem Tox % Control ([6]; 5 μM): 93%; ATP % Control ([6]; 10 μM): 91%; Cell Mass % Control ([6]; 10 μM): 81%; Mem Tox % Control ([6]; 10 μM): 91%; ATP % Control ([6]; 50 μM): 78%; Cell Mass % Control ([6]; 50 μM): 62%; Mem Tox % Control ([6]; 50 μM): 90%; solubility [7]: 50 µM |
| c1cc2cc(-c3cncc(N4CCOCC4)n3)cnc2[nH]1 [Compound 148, 4-(6-(1H-pyrrolo[2,3-b]pyridin-5-yl)pyrazin-2-yl)morpholine] | dose-dependent protection | Improve Locomotor Activities | Restore Striatal Dopamine Levels | significantly protected | significantly protected | not against neurochemical deficits | 1020 | 15.2 | 123 | 2.26 | 1040 | 133 | 24 | 6.7 | IC50 [8]: < 0.5 µM; IC50 [9]: < 0.5 µM; IC50 [10]: < 0.5 µM; % enzyme inhibition relative to DMSO controls [11]: 5-15%; IC50 [12]: > 100 µM; IC50 [13]: 8.8 µM |
